Assays:
Test in all cases: relative viability (nuclei count vs DMSO), 5 days (fraction); higher = more cells survive
NCI-H2347 = test system: NCI-H2347
In short: (§1)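 The day after seeding in 1536-well plates, lung cancer cell lines were treated by pin tool with a single drug, or with a fixed anchor-drug dose together with five library-drug doses (not always all listed) in √10 steps. After 5 days, a combined fix-and-stain solution (final 0.05% Triton X-100, 1% formaldehyde, 1 ug/ml Hoechst) was added. Nuclei counted on 4× images gave relative viability as treated counts over vehicle counts, reported as the median of duplicate plates.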

HARA = test system: HARA
In short: as §1

NCI-H1651 = test system: NCI-H1651
In short: as §1

NCI-H520 = test system: NCI-H520
In short: as §1

NCI-H2405 = test system: NCI-H2405
In short: as §1

NCI-H647 = test system: NCI-H647
In short: as §1

NCI-H522 = test system: NCI-H522
In short: as §1

LK-2 = test system: LK-2
In short: as §1

NCI-H1650 = test system: NCI-H1650
In short: as §1

COR-L23 = test system: COR-L23
In short: as §1

NCI-H1793 = test system: NCI-H1793
In short: as §1

NCI-H838 = test system: NCI-H838
In short: as §1

A-427 = test system: A-427
In short: as §1

NCI-H23 = test system: NCI-H23
In short: as §1

LCLC-103H = test system: LCLC-103H
In short: as §1

LXF-289 = test system: LXF-289
In short: as §1

201T = test system: 201T
In short: as §1

PC-3 [JPC-3] = test system: PC-3 [JPC-3]
In short: as §1

LCLC-97TM1 = test system: LCLC-97TM1
In short: as §1

RERF-LC-KJ = test system: RERF-LC-KJ
In short: as §1

LOU-NH91 = test system: LOU-NH91
In short: as §1

UMC-11 = test system: UMC-11
In short: as §1

SMILES: CN1CCN(CCOc2cc(OC3CCOCC3)c3c(Nc4c(Cl)ccc5c4OCO5)ncnc3c2)CC1 [Saracatinib] + CCNC(=O)c1noc(-c2cc(C(C)C)c(O)cc2O)c1-c1ccc(CN2CCOCC2)cc1 [Luminespib] (partner 0.01 µM)
- relative viability (NCI-H2347; first compound 0.02 µM): 0.372
- relative viability (NCI-H2347; first compound 0.2 µM): 0.411
- relative viability (NCI-H2347; first compound 0.6325 µM): 0.774
- relative viability (NCI-H2347; first compound 2 µM): 0.416
- relative viability (HARA; first compound 0.02 µM): 0.686
- relative viability (HARA; first compound 0.2 µM): 0.606
- relative viability (HARA; first compound 0.6325 µM): 0.485
- relative viability (HARA; first compound 2 µM): 0.367
- relative viability (NCI-H1651; first compound 0.02 µM): 0.912
- relative viability (NCI-H1651; first compound 0.2 µM): 0.516
- relative viability (NCI-H1651; first compound 0.6325 µM): 0.965
- relative viability (NCI-H1651; first compound 2 µM): 0.837
- relative viability (NCI-H520; first compound 0.02 µM): 0.213
- relative viability (NCI-H520; first compound 0.6325 µM): 0.221
- relative viability (NCI-H520; first compound 2 µM): 0.204
- relative viability (NCI-H2405; first compound 0.02 µM): 0.588
- relative viability (NCI-H2405; first compound 0.2 µM): 0.525
- relative viability (NCI-H2405; first compound 0.6325 µM): 0.519
- relative viability (NCI-H2405; first compound 2 µM): 0.271
- relative viability (NCI-H647; first compound 0.02 µM): 0.175
- relative viability (NCI-H647; first compound 0.2 µM): 0.171
- relative viability (NCI-H647; first compound 0.6325 µM): 0.303
- relative viability (NCI-H647; first compound 2 µM): 0.146
- relative viability (NCI-H522; first compound 0.02 µM): 1.13
- relative viability (NCI-H522; first compound 0.2 µM): 0.943
- relative viability (NCI-H522; first compound 0.6325 µM): 1.11
- relative viability (NCI-H522; first compound 2 µM): 0.949
- relative viability (LK-2; first compound 0.02 µM): 0.218
- relative viability (LK-2; first compound 0.2 µM): 0.209
- relative viability (LK-2; first compound 0.6325 µM): 0.199
- relative viability (LK-2; first compound 2 µM): 0.186
- relative viability (NCI-H1650; first compound 0.02 µM): 0.188
- relative viability (NCI-H1650; first compound 0.2 µM): 0.187
- relative viability (NCI-H1650; first compound 0.6325 µM): 0.188
- relative viability (NCI-H1650; first compound 2 µM): 0.221
- relative viability (COR-L23; first compound 0.02 µM): 0.694
- relative viability (COR-L23; first compound 0.2 µM): 0.605
- relative viability (COR-L23; first compound 0.6325 µM): 0.575
- relative viability (COR-L23; first compound 2 µM): 0.558
- relative viability (NCI-H1793; first compound 0.02 µM): 0.2
- relative viability (NCI-H1793; first compound 0.6325 µM): 0.173
- relative viability (NCI-H1793; first compound 2 µM): 0.177
- relative viability (NCI-H838; first compound 0.02 µM): 0.264
- relative viability (NCI-H838; first compound 0.2 µM): 0.411
- relative viability (NCI-H838; first compound 0.6325 µM): 0.307
- relative viability (NCI-H838; first compound 2 µM): 0.271
- relative viability (A-427; first compound 0.02 µM): 0.985
- relative viability (A-427; first compound 0.2 µM): 0.755
- relative viability (A-427; first compound 0.6325 µM): 0.907
- relative viability (A-427; first compound 2 µM): 0.888
- relative viability (NCI-H23; first compound 0.02 µM): 0.247
- relative viability (NCI-H23; first compound 0.2 µM): 0.193
- relative viability (NCI-H23; first compound 0.6325 µM): 0.196
- relative viability (NCI-H23; first compound 2 µM): 0.219
- relative viability (LCLC-103H; first compound 0.02 µM): 1.02
- relative viability (LCLC-103H; first compound 0.2 µM): 0.902
- relative viability (LCLC-103H; first compound 0.6325 µM): 0.975
- relative viability (LCLC-103H; first compound 2 µM): 0.9
- relative viability (LXF-289; first compound 0.02 µM): 0.619
- relative viability (LXF-289; first compound 0.2 µM): 0.633
- relative viability (LXF-289; first compound 0.6325 µM): 0.796
- relative viability (LXF-289; first compound 2 µM): 0.585
- relative viability (201T; first compound 0.02 µM): 1.05
- relative viability (201T; first compound 0.2 µM): 0.956
- relative viability (201T; first compound 0.6325 µM): 0.965
- relative viability (201T; first compound 2 µM): 0.832
- relative viability (PC-3 [JPC-3]; first compound 0.02 µM): 0.732
- relative viability (PC-3 [JPC-3]; first compound 0.2 µM): 0.655
- relative viability (PC-3 [JPC-3]; first compound 0.6325 µM): 0.675
- relative viability (PC-3 [JPC-3]; first compound 2 µM): 0.537
- relative viability (LCLC-97TM1; first compound 0.02 µM): 0.8
- relative viability (LCLC-97TM1; first compound 0.2 µM): 0.47
- relative viability (LCLC-97TM1; first compound 0.6325 µM): 0.725
- relative viability (LCLC-97TM1; first compound 2 µM): 0.444
- relative viability (RERF-LC-KJ; first compound 0.02 µM): 1.27
- relative viability (RERF-LC-KJ; first compound 0.2 µM): 1.38
- relative viability (RERF-LC-KJ; first compound 0.6325 µM): 1.29
- relative viability (RERF-LC-KJ; first compound 2 µM): 1.16
- relative viability (LOU-NH91; first compound 0.02 µM): 0.356
- relative viability (LOU-NH91; first compound 0.2 µM): 0.29
- relative viability (LOU-NH91; first compound 0.6325 µM): 0.385
- relative viability (LOU-NH91; first compound 2 µM): 0.286
- relative viability (UMC-11; first compound 0.02 µM): 0.96
- relative viability (UMC-11; first compound 0.6325 µM): 0.863
- relative viability (UMC-11; first compound 2 µM): 0.624

From the supplement of paper PMC10307832
